For data set [1], the system named is A2780/DDP drug resistant cell line. Kind of data set: In vitro cytotoxicity assay (XTT), A2780/DDP. The format is cell-based, human. The protocol:
(§1) The A2780/DDP cell line is reported to be resistant through enhanced DNA repair mechanisms and elevated GSH/GST levels. Cells were cultured in McCoy's media and 10% fetal bovine serum. When in log phase growth, 4×10^3 cells/well were plated into 96 well microtiter plates and incubated at 37° C. in […] /5% CO2 for 24 hours to allow cell attachment. Compounds were added to the top row of wells, serially diluted (4 fold dilutions) and incubated for an additional 72 hours. The number of viable cells in each well was then quantitated as previously described^2 by adding 0.05 mg/ml final concentration tetrazolium stain (XTT) in the presence of 0.005 mM final concentration phenazine methosulfate. After incubation at room temperature for 3 hours to allow color development, optical density values were measured using a Dynatech MR600 plate reader at […]. IC50 values (drug concentration inhibiting cell growth by 50%) were calculated using linear regression analysis of the optical density readings. Triplicate determinations on separate 96 well plates were done for each drug on each cell line tested.

Data set [2] has as its system human colon adenocarcinoma HCT116 drug sensitive line. Kind of data set: In vitro cytotoxicity assay (XTT), HCT116. As to conditions: Homo sapiens, HCT-116; HCT116, 72 h; VP-16 values: mean of triplicate determinations from last 6 experiments; read-out: IC50. Type of data set: cell-based. As for the experimental part: as §1
Data set [3] relates to HCT116/VM46 drug resistant cell line. Description: In vitro cytotoxicity assay (XTT), HCT116/VM46. The format is cell-based, human. As to conditions: Homo sapiens, HCT-116/VM46; HCT116/VM46, 72 h; VP-16 values: mean of triplicate determinations from last 6 experiments; read-out: IC50. As for the experimental part:
as §1
Background: Tetrazolium assays rely on reduction of a dye to a coloured formazan, in cell work by metabolically active cells.

Data set [4] has as its system human ovarian carcinoma A2780 drug sensitive cell line. Kind of data set: In vitro cytotoxicity assay (XTT), A2780. Type of data set: cell-based. The settings on record: Homo sapiens; A2780, 72 h; VP-16 values: mean of triplicate determinations from last 6 experiments; read-out: IC50. The protocol: as §1
In data set [5] the test system is HCT116/VP35 drug resistant cell line. Kind of data set: In vitro cytotoxicity assay (XTT), HCT116/VP35. Type of data set: cell-based, human. As to conditions: Homo sapiens, HCT-116; HCT116/VP35, 72 h; VP-16 values: mean of triplicate determinations from last 6 experiments; read-out: IC50. The protocol:
as §1

For data set [6], the system named is iv implanted P388 leukemia. Kind of data set: Antitumor activity against iv implanted P388 leukemia. Type of data set: in vivo, murine (CDF1 mice). The arrangement: Med. surv. time: unit not given here. The text has this:
(§2) The P388 tumor was maintained in ascitic form in DBA/2 mice. Experimental tumor models used CDF^1 mice implanted via the intraperitoneal or intravenous route with 1×10^6 leukemia cells on day 0 and dosed with drugs according to the indicated route and schedule. Mice were weighed on day 0 and on day 5 or 6. Weight loss of 20% or greater was an indicator of drug toxicity. Each dose group consisted of 6 mice with 10 mice in the untreated control group. The dosing schedule was Q1DX1;1. Death checks were performed daily and the median life span of each group determined. […] Experiments were terminated on or about day 30.

Data set [7] has as its system ip implanted P388 leukemia. Kind of data set: Antitumor activity against ip implanted P388 leukemia. Further details: Med. surv. time: unit not given here. Type of data set: in vivo, murine (CDF1 mice).
Description: as §2

Converted amounts (≈) assume the structure as drawn.

For orientation: IC50 means the point on the concentration scale where inhibition reaches its midpoint.

For the compound `COc1cc([C@@H]2c3cc4c(cc3[C@@H](O[C@@H]3O[C@@H]5CO[C@@H](C)O[C@H]5[C@H](O)[C@H]3O)[C@H]3COC(=O)[C@H]23)OCO4)cc(OC)c1O` [VP-16, etoposide, reference compound], the “fold less potent on the resistant cell line compared to the sensitive cell line” value in data set [1] (A2780/DDP vs A2780, 4320 min) is on record as “about 6.6 fold”. Moreover, the IC50 came to 0.379 µg/mL (≈ 0.644 µM) in data set [1] (Homo sapiens, A2780/DDP, 72 h, VP-16 values: mean of triplicate determinations from last 6 experiments, read-out: IC50); 0.69 µg/mL (≈ 1.17 µM) in data set [2]; 3.25 µg/mL (≈ 5.53 µM) in data set [3]; 0.057 µg/mL (≈ 0.0968 µM) in data set [4]; 8.76 µg/mL (≈ 14.9 µM) in data set [5].

For the compound `CO[C@@]12[C@H](COC(N)=O)C3=C(C(=O)C(C)=C(N)C3=O)N1C[C@@H]1N[C@@H]12` [Mitomycin C, reference compound], the “% T/C” value in data set [6] (Exp. 8305, 0.8 mg/kg/dose) worked out at 114%; in data set [6] (Exp. 8305, 1.6 mg/kg/dose), 143%; in data set [6] (Exp. 8305, 3.2 mg/kg/dose), 157%; in data set [6] (Exp. 8305, 4.8 mg/kg/dose), 193%; in data set [6] (Exp. 8328, 1.6 mg/kg/dose), 129%; in data set [6] (Exp. 8328, 3.2 mg/kg/dose), 143%. Also, the “% T/C” value in data set [7] (Exp. 8305, 3.2 mg/kg/dose) came to 200%; in data set [7] (Exp. 8305, 4.8 mg/kg/dose), 230%; in data set [7] (Exp. 8328, 3.2 mg/kg/dose), 190%; in data set [7] (Exp. 8328, 4.8 mg/kg/dose), 200%. Besides, the Av. wgt. change in data set [6] (Exp. 8305, 0.8 mg/kg/dose) is reported as 0.4 g; in data set [6] (Exp. 8305, 1.6 mg/kg/dose), -0.3 g; in data set [6] (Exp. 8305, 3.2 mg/kg/dose) it was 0.5 g; in data set [6] (Exp. 8305, 4.8 mg/kg/dose), -0.8 g; in data set [6] (Exp. 8328, 1.6 mg/kg/dose), -0.1 g; in data set [6] (Exp. 8328, 3.2 mg/kg/dose), -0.7 g. Also, the Av. wgt. change was -0.5 g in data set [7] (Exp. 8305, 3.2 mg/kg/dose); -0.7 g in data set [7] (Exp. 8305, 4.8 mg/kg/dose); -0.8 g in data set [7] (Exp. 8328, 3.2 mg/kg/dose); -0.5 g in data set [7] (Exp. 8328, 4.8 mg/kg/dose). In addition, the Med. surv. time in data set [6] (Exp. 8305, 0.8 mg/kg/dose) is 8.0; in data set [6] (Exp. 8305, 1.6 mg/kg/dose) it was 10.0; in data set [6] (Exp. 8305, 3.2 mg/kg/dose), 11.0; in data set [6] (Exp. 8305, 4.8 mg/kg/dose) it was 13.5; in data set [6] (Exp. 8328, 1.6 mg/kg/dose), 9.0; in data set [6] (Exp. 8328, 3.2 mg/kg/dose), 10.0. The Med. surv. time in data set [7] (Exp. 8305, 3.2 mg/kg/dose) is listed as 20.0; in data set [7] (Exp. 8305, 4.8 mg/kg/dose), 23.0; in data set [7] (Exp. 8328, 3.2 mg/kg/dose) it was 19.0; in data set [7] (Exp. 8328, 4.8 mg/kg/dose), 20.0. In addition, the “No. of mice alive on d 5” value in data set [6] (Exp. 8305, 0.8 mg/kg/dose) is 6/6; in data set [6] (Exp. 8305, 1.6 mg/kg/dose), 6/6; in data set [6] (Exp. 8305, 3.2 mg/kg/dose), 6/6; in data set [6] (Exp. 8305, 4.8 mg/kg/dose) it was 6/6; in data set [6] (Exp. 8328, 1.6 mg/kg/dose) it was 6/6; in data set [6] (Exp. 8328, 3.2 mg/kg/dose), 6/6. The “No. of mice alive on d 5” value in data set [7] (Exp. 8305, 3.2 mg/kg/dose) is recorded as 6/6; in data set [7] (Exp. 8305, 4.8 mg/kg/dose), 6/6; in data set [7] (Exp. 8328, 3.2 mg/kg/dose) it was 6/6; in data set [7] (Exp. 8328, 4.8 mg/kg/dose) it was 6/6.

These data come from patent publication US5143906A, “Kedarcidin antitumor chromophore and pharmaceutical composition containing same” (Bristol-Myers Squibb Company, priority 1991, dated 1992).
